Common to all, as to type: in vivo
For data set [1], the system named is Beet Armyworm (Spodoptera exigua, LAPHEG). Kind of data set: Bioassays on Beet Armyworm (BAW), 128-well diet tray assay. The following applies: Spodoptera exigua. An outline of the steps: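 One to five second-instar larvae per well on artificial diet surface-treated with 50 μg/cm^2 test molecule (applied in 90:10 acetone-water, dried), eight wells per compound. Trays held vented at 25° C., 14:10 light-dark for five to seven days; percent mortality averaged over the eight wells.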

Data set [2] deals with Green Peach Aphid (Myzus persicae, MYZUPE). Briefly: Bioassays on Green Peach Aphid (GPA), foliar spray on cabbage seedlings. The following applies: 72 h. An outline of the steps: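 Percent control (Abbott-corrected versus solvent-sprayed plants) comes from live-aphid counts three days after treatment at about 25° C. Test solution at 200 ppm was sprayed to runoff onto both leaf surfaces of cabbage seedlings infested a day earlier with 20-50 aphids; four replicate pots.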

Data set [3] concerns Yellow Fever Mosquito (Aedes aegypti, AEDSAE). As to conditions: for YFM rating: Table ABC / ABC-DP rating. An outline of the steps:
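Mortality after 3 days at room temperature is the read-out, scored well by well and converted to a rating. Test molecules came from 4000 ppm stocks in DMSO, further diluted in 90:10 water/acetone, and were exposed to roughly 1-day-old larvae suspended in liver-powder water.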

For data set [4], the system named is Cabbage Looper (Trichoplusia ni, TRIPNI). Kind of data set: Bioassays on Cabbage Looper (CL), 128-well diet tray assay. The following applies: Trichoplusia ni. An outline of the steps:
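One to five second-instar larvae per well on artificial diet surface-treated with 50 μg/cm^2 test molecule (applied in 90:10 acetone-water, dried). Held 5–7 days at 25° C, 14:10 light-dark; percent mortality recorded per well and averaged over eight wells.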

Setting [5] is: Table ABC: Biological Results, species BAW, read-out: BAW.
[6] abbreviates: Table ABC: Biological Results, species GPA, read-out: GPA.
[7] abbreviates: Table ABC: Biological Results, species YFM.
[8] abbreviates: Table ABC: Biological Results, species CL, read-out: CL.
Setting [9] is: Beet Armyworm, rating class, read-out: BAW.
Where [10] appears, read: Green Peach Aphid, rating class, read-out: GPA.
Setting [11] is: Yellow Fever Mosquito, rating class.
The mark [12] stands for this setting: Cabbage Looper, rating class, read-out: CL.
[13] abbreviates: Beet Armyworm, Table ABC / ABC-DP rating, read-out: BAW rating.
Setting [14] is: Green Peach Aphid, Table ABC / ABC-DP rating, read-out: GPA rating.
The mark [15] stands for this setting: Cabbage Looper, Table ABC / ABC-DP rating, read-out: CL rating.

Where two headings read alike, the source gives them in different places.

The text below walks through data of patent US20250228239A1, “MOLECULES HAVING PESTICIDAL UTILITY, AND INTERMEDIATES, COMPOSITIONS, AND PROCESSES, RELATED THERETO” (priority 2024, published 2025).

As a reminder, the mortality is the share of the test organisms that died.

For the molecule `Nc1ccc(F)c(NC(=O)c2cc(NC(=O)[C@H]3[C@H](c4cc(Cl)cc(Cl)c4)C3(Cl)Cl)ccc2Cl)c1F` [F1227, N-(3-Amino-2,6-difluorophenyl)-2-chloro-5-((1R,3R)-2,2-dichloro-3-(3,5-dichlorophenyl)cyclopropane-1-carboxamido)benzamide], the pest or weed control at 50 µg/cm2 in data set [1] (setting [5]) and in data set [4] (setting [8]) was 50 to 100% throughout. Besides, the pest or weed control at 200 µg/mL in data set [2] (setting [6]) lay within 0 to 80%. Moreover, the YFM entry in data set [3] (setting [7]) is listed as “A (80–100)”.
As to `CC(C)C(=O)Nc1c(F)ccc(NC(=O)c2cc(NC(=O)[C@H]3[C@H](c4ccc(F)c(C(F)(F)F)c4)C3(Cl)Cl)ccc2Cl)c1F` [F1483, 2-Chloro-5-((1R,3R)-2,2-dichloro-3-(4-fluoro-3-(trifluoromethyl)phenyl)cyclopropane-1-carboxamido)-N-(2,4-difluoro-3-isobutyramidophenyl)benzamide], the pest or weed control at 50 µg/cm2 in data set [1] (setting [9]) and in data set [4] (setting [12]) was 50 to 100% throughout. The pest or weed control at 200 µg/mL in data set [2] (setting [10]) was in the range of 0 to 80%. The YFM entry in data set [3] (setting [11]) is “A (80–100)”.
`O=C(CCCNC(=O)c1cc(NC(=O)[C@H]2[C@H](c3cc(Cl)cc(Cl)c3)C2(Cl)Cl)ccc1Cl)NCC(F)(F)F` (relative stereo) [F2080, trans-2-Chloro-5-(2,2-dichloro-3-(3,5-dichlorophenyl)cyclopropane-1-carboxamido)-N-(4-oxo-4-(2,2,2-trifluoroethylamino)butyl)benzamide]: the pest or weed control at 50 µg/cm2 in data set [1] (setting [13]) and in data set [4] (setting [15]) was 50 to 100% each time. Also, the pest or weed control at 200 µg/mL in data set [2] (setting [14]) is 0 to 80%. The YFM rating result in data set [3] (Yellow Fever Mosquito) was “B (More than 0 – Less than 80)”.
On to `Nc1c(F)ccc(NC(=O)c2cc(NC(=O)[C@H]3[C@H](c4ccc(F)c(C(F)(F)F)c4)C3(Cl)Cl)ccc2Cl)c1F` (relative stereo) [DP8, trans-N-(3-amino-2,4-difluorophenyl)-2-chloro-5-(2,2-dichloro-3-(4-fluoro-3-(trifluoromethyl)phenyl)cyclopropane-1-carboxamido)benzamide], for which the mortality at 50 µg/cm2 in data set [1] (168 h, second instar larvae, 50 μg/cm^2 of test molecule on artificial diet, 25° C., five to seven days, average of eight wells, read-out: BAW % Control (or Mortality) rating) was 50 to 100%; in data set [4] (168 h, second instar larvae, 50 μg/cm^2 of test molecule on artificial diet, 25° C., five to seven days, average of eight wells, read-out: CL % Control (or Mortality) rating), 50 to 100%. In addition, the pest or weed control at 50 µg/cm2 in data set [1] (setting [13]) and in data set [4] (setting [15]) was 50 to 100% each time. Moreover, the mortality at 200 ppm in data set [2] (200 ppm test molecule sprayed on infested cabbage seedlings, three days, Abbott's corrected % control, read-out: GPA % Control (or Mortality) rating) lay in the range of 80 to 100%. The pest or weed control at 200 µg/mL in data set [2] (setting [14]) fell in the range of 80 to 100%. For the same molecule, the YFM rating result in data set [3] (Yellow Fever Mosquito) is recorded as “A (80–100)”. Moreover, the “YFM % Control (or Mortality) rating” value in data set [3] (about 1 day-old larvae, 4000 ppm master solution diluted with 90:10 water/acetone, 15 μL per well plus 220 μL larval mixture, 3 days, mortality) is on record as “A (80–100)”.
On to `O=C(Nc1ccc(F)c(NC(=O)C(F)F)c1F)c1cc(NC(=O)[C@H]2[C@H](c3ccc(F)cc3)C2(Cl)Cl)ccc1Cl` (relative stereo) [F1598, trans-2-Chloro-5-(2,2-dichloro-3-(4-fluorophenyl)cyclopropane-1-carboxamido)-N-(3-(2,2-difluoroacetamido)-2,4-difluorophenyl)benzamide], for which the pest or weed control at 50 µg/cm2 in data set [1] (setting [9]) and in data set [4] (setting [12]) was 50 to 100% in each case. Besides, the pest or weed control at 200 µg/mL in data set [2] (setting [10]) was in the range of 80 to 100%. Besides, in data set [3] (setting [11]), the YFM result was “A (80–100)”.
`O=C(Nc1ccc(F)c(NC(=O)C(F)F)c1F)c1cc(NC(=O)[C@H]2[C@H](c3cc(F)cc(C(F)(F)F)c3)C2(Cl)Cl)ccc1Cl` [F1711, 2-Chloro-5-((1R,3R)-2,2-dichloro-3-(3-fluoro-5-(trifluoromethyl)phenyl)cyclopropane-1-carboxamido)-N-(3-(2,2-difluoroacetamido)-2,4-difluorophenyl)benzamide]: the pest or weed control at 50 µg/cm2 in data set [1] (setting [9]) and in data set [4] (setting [12]) was 50 to 100% throughout. Further, the pest or weed control at 200 µg/mL in data set [2] (setting [10]) is 80 to 100%. The YFM entry in data set [3] (setting [11]) is listed as “A (80–100)”.
On to `CN(C(=O)C(F)(F)C(F)(F)F)c1c(F)ccc(NC(=O)c2cc(NC(=O)[C@H]3[C@H](c4ccc(Cl)c(Cl)c4)C3(Cl)Cl)ccc2Cl)c1F` [F1615, 2-Chloro-5-((1R,3R)-2,2-dichloro-3-(3,4-dichlorophenyl)cyclopropane-1-carboxamido)-N-(2,4-difluoro-3-(2,2,3,3,3-pentafluoro-N-methylpropanamido)phenyl)benzamide], for which the pest or weed control at 50 µg/cm2 in data set [1] (setting [9]) and in data set [4] (setting [12]) was 50 to 100% throughout. Further, the pest or weed control at 200 µg/mL in data set [2] (setting [10]) was in the range of 0 to 80%. The YFM result in data set [3] (setting [11]) is given as “A (80–100)”.
As for `COCCC(=O)Nc1c(F)ccc(NC(=O)c2cc(NC(=O)[C@H]3[C@H](c4ccc(F)c(C(F)(F)F)c4)C3(Cl)Cl)ccc2Cl)c1F` [F1489, 2-Chloro-5-((1R,3R)-2,2-dichloro-3-(4-fluoro-3-(trifluoromethyl)phenyl)cyclopropane-1-carboxamido)-N-(2,4-difluoro-3-(3-methoxypropanamido)phenyl)benzamide], the pest or weed control at 50 µg/cm2 in data set [1] (setting [9]) and in data set [4] (setting [12]) was 50 to 100% throughout. Also, in data set [2] (setting [10]), the pest or weed control at 200 µg/mL fell in the range of 0 to 80%. Further, the YFM result in data set [3] (setting [11]) is reported as “A (80–100)”.
On to `CN(C(=O)CC#N)c1c(F)ccc(NC(=O)c2cc(NC(=O)[C@H]3[C@H](c4ccc(Cl)c(Cl)c4)C3(Cl)Cl)ccc2Cl)c1F` [F1617, 2-Chloro-N-(3-(2-cyano-N-methylacetamido)-2,4-difluorophenyl)-5-((1R,3R)-2,2-dichloro-3-(3,4-dichlorophenyl)cyclopropane-1-carboxamido)benzamide], for which the pest or weed control at 50 µg/cm2 in data set [1] (setting [9]) and in data set [4] (setting [12]) was 50 to 100% throughout. Besides, the pest or weed control at 200 µg/mL in data set [2] (setting [10]) is 0 to 80%. Further, in data set [3] (setting [11]), the YFM entry is given as “A (80–100)”.
As to `O=C(COC(F)(F)F)Nc1c(F)ccc(NC(=O)c2cc(NC(=O)[C@H]3[C@H](c4ccc(F)c(C(F)(F)F)c4)C3(Cl)Cl)ccc2Cl)c1F` [F1742, 2-Chloro-5-((1R,3R)-2,2-dichloro-3-(4-fluoro-3-(trifluoromethyl)phenyl)cyclopropane-1-carboxamido)-N-(2,4-difluoro-3-(2-(trifluoromethoxy)acetamido)phenyl)benzamide], the pest or weed control at 50 µg/cm2 in data set [1] (setting [9]) and in data set [4] (setting [12]) was 50 to 100% in each case. In addition, the pest or weed control at 200 µg/mL in data set [2] (setting [10]) was in the range of 0 to 80%. In data set [3] (setting [11]), the YFM entry is listed as “A (80–100)”.
With `O=C1CC(C(=O)Nc2c(F)ccc(NC(=O)c3cc(NC(=O)[C@H]4[C@H](c5ccc(Cl)c(Cl)c5)C4(Cl)Cl)ccc3Cl)c2F)C1` [F1475, 2-Chloro-5-((1R,3R)-2,2-dichloro-3-(3,4-dichlorophenyl)cyclopropane-1-carboxamido)-N-(2,4-difluoro-3-(3-oxocyclobutane-1-carboxamido)phenyl)benzamide], the pest or weed control at 50 µg/cm2 in data set [1] (setting [9]) and in data set [4] (setting [12]) was 50 to 100% in each case. The pest or weed control at 200 µg/mL in data set [2] (setting [10]) lay in the range of 0 to 80%. Moreover, the YFM entry in data set [3] (setting [11]) was “A (80–100)”.
As for `O=C(Nc1ccc(F)cc1F)c1cc(NC(=O)[C@H]2[C@H](c3ccc(S(F)(F)(F)(F)F)cc3)C2(Cl)Cl)ccc1Cl` (relative stereo) [F1089, trans-2-Chloro-5-(2,2-dichloro-3-(4-(pentafluoro-λ^6-sulfanyl)phenyl)cyclopropane-1-carboxamido)-N-(2,4-difluorophenyl)benzamide], the pest or weed control at 50 µg/cm2 in data set [1] (setting [5]) and in data set [4] (setting [8]) was 50 to 100% each time. Besides, in data set [2] (setting [6]), the pest or weed control at 200 µg/mL fell in the range of 0 to 80%. In data set [3] (setting [7]), the YFM result is given as “A (80–100)”.
With `O=C(CC(F)(F)F)Nc1c(F)ccc(NC(=O)c2cc(NC(=O)[C@H]3[C@H](c4ccc(F)c(Cl)c4)C3(Cl)Cl)ccc2Cl)c1F` [F1701, 2-Chloro-5-((1R,3R)-2,2-dichloro-3-(3-chloro-4-fluorophenyl)cyclopropane-1-carboxamido)-N-(2,4-difluoro-3-(3,3,3-trifluoropropanamido)phenyl)benzamide], the pest or weed control at 50 µg/cm2 in data set [1] (setting [9]) and in data set [4] (setting [12]) was 50 to 100% in each case. Also, the pest or weed control at 200 µg/mL in data set [2] (setting [10]) was in the range of 80 to 100%. Further, in data set [3] (setting [11]), the YFM result is listed as “B (More than 0 – Less than 80)”.
Take `O=C(NCCCCl)c1c(Cl)ccc(NC(=O)[C@H]2[C@H](c3ccc(F)c(Cl)c3)C2(Cl)Cl)c1Cl` (relative stereo) [F2026, trans-2,6-Dichloro-N-(3-chloropropyl)-3-(2,2-dichloro-3-(3-chloro-4-fluorophenyl)cyclopropane-1-carboxamido)benzamide]: the pest or weed control at 50 µg/cm2 in data set [1] (setting [13]) and in data set [4] (setting [15]) was 50 to 100% in each case. Besides, the pest or weed control at 200 µg/mL in data set [2] (setting [14]) was 0 to 80%. In addition, the YFM rating entry in data set [3] (Yellow Fever Mosquito) was “A (80–100)”.
